This assay has as its target GroEL in complex with its cofactor GroES (Escherichia coli, UniProt P0A6F5). The settings on record: with GroES (singly capped); no AlFx; labelled compound.

This note sets out measurements from paper PMC3543868 (Cell reports, 2012).

GroEL in complex with its cofactor GroES, sequence (P0A6F5 2-548): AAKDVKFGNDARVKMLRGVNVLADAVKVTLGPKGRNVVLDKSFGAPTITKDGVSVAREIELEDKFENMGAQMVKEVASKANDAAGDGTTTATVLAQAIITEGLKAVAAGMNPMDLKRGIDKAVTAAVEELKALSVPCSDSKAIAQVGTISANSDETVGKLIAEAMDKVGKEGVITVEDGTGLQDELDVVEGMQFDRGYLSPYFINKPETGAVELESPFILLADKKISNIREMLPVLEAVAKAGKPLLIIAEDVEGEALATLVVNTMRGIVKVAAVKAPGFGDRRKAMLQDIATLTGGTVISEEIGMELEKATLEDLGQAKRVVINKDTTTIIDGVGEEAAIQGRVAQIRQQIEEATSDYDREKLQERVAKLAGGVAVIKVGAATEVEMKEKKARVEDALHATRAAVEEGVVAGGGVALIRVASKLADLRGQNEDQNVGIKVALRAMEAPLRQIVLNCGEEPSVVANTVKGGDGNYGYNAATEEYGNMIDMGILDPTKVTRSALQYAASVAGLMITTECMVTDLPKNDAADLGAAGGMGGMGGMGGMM
GroEL in complex with its cofactor GroES, sequence (P0A6F9 whole entry, further chain): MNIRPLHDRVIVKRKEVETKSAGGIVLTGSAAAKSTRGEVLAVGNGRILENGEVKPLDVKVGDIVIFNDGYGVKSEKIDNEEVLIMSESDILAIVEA

Take `Nc1ncnc2c1ncn2[C@@H]1O[C@H](COP(=O)(O)OP(=O)(O)OP(=O)(O)O)[C@@H](O)[C@H]1O` [ATP]: the “nucleotides per GroEL 14-mer” value is listed as ~ 7 nucleotides per GroEL 14-mer.
